Literature values as cited in patent publication US5278308A, “Iodine derivatives of tetrabenazine” (The Trustees of The University of Pennsylvania, priority 1992, dated 1994).

Columns and labels:
[1] = tested on: monoamine uptake-storage mechanism of amine granules in the synapse; conditions: in vivo; cited from earlier work
[2] = up to 300 mg daily, several trials; cited from earlier work
[3] = tested on: monoamine transporter of chromaffin granules and CNS synaptic vesicles; conditions: cited from earlier work

Row | SMILES | Duration of depletion of catecholamines and serotonin in the brain (in words) [1] | Irreversible damage to storage mechanism / neurons (in words) [1] | Effect on tardive dyskinesia in patients (in words) [2] | binding affinity for the transporter (in words) [3]
1 | COc1cc2c(cc1OC)C1CC(=O)C(CC(C)C)CN1CC2 (stereo not shown) [TBZ, 3-(2-methylpropyl)-9,10-dimethoxy-1,3,4,6,7,11b-hexahydro-2H-benzo[a]quinolizin-2-one] | shorter duration | do not cause irreversible damage to neurons | improved tardive dyskinesia | 
2 | COc1cc2c(cc1OC)C1CC(OC(C)=O)C(CC(C)C)CN1CC2 (stereo not shown) [acetyl derivative of dihydro-TBZ] |  |  |  | retain high affinity
